Data taken from ChEMBL document CHEMBL5649169 (ChemMedChem, 2018).

Tests used:
[1] = target: PAT complex subunit CCDC47 (Homo sapiens) (UniProt Q96A33)
[2] = target: Amino acid transporter heavy chain SLC3A2 (Homo sapiens) (UniProt P08195)
[3] = target: Transmembrane 9 superfamily member 3 (Homo sapiens) (UniProt Q9HD45)
[4] = target: Mitogen-activated protein kinase kinase kinase 4 (Homo sapiens) (UniProt Q9Y6R4)
Stathmin (Homo sapiens) = Stathmin (Homo sapiens) (UniProt P16949)
[5] = target: Serine/threonine-protein kinase ICK (Homo sapiens) (UniProt Q9UPZ9)
[6] = target: Epithelial discoidin domain-containing receptor 1 (Homo sapiens) (UniProt Q08345)
[7] = target: Delta(14)-sterol reductase LBR (Homo sapiens) (UniProt Q14739)
[8] = target: Asparagine--tRNA ligase, cytoplasmic (Homo sapiens) (UniProt O43776)
[9] = target: RuvB-like 2 (Homo sapiens) (UniProt Q9Y230)
[10] = target: Protein transport protein Sec24C (Homo sapiens) (UniProt P53992)
[11] = target: Histone H1.10 (Homo sapiens) (UniProt Q92522)
[12] = target: Non-selective voltage-gated ion channel VDAC1 (Homo sapiens) (UniProt P21796)
[13] = target: Integrin alpha-6 (Homo sapiens) (UniProt P23229)
[14] = target: Polypyrimidine tract-binding protein 1 (Homo sapiens) (UniProt P26599)
[15] = target: Prohibitin 1 (Homo sapiens) (UniProt P35232)
[16] = target: Phosphatidylinositol transfer protein beta isoform (Homo sapiens) (UniProt P48739)
[17] = target: Small ribosomal subunit protein eS7 (Homo sapiens) (UniProt P62081)
[18] = target: Monocarboxylate transporter 4 (Homo sapiens) (UniProt O15427)
Cyclin-H (Homo sapiens) = Cyclin-H (Homo sapiens) (UniProt P51946)
[19] = target: Dipeptidyl peptidase 2 (Homo sapiens) (UniProt Q9UHL4)
Homo sapiens [20] = species: Homo sapiens
[21] = target: Peptidyl-prolyl cis-trans isomerase H (Homo sapiens) (UniProt O43447)
[22] = target: KH domain-containing, RNA-binding, signal transduction-associated protein 1 (Homo sapiens) (UniProt Q07666)
Homo sapiens [23] = species: Homo sapiens; remark: listed apart in the source
[24] = target: Large neutral amino acids transporter small subunit 1 (Homo sapiens) (UniProt Q01650)
[25] = target: Lysosome-associated membrane glycoprotein 2 (Homo sapiens) (UniProt P13473)
[26] = target: Ubiquitin-protein ligase E3C (Homo sapiens) (UniProt Q15386)
[27] = target: U2 snRNP-associated SURP motif-containing protein (Homo sapiens) (UniProt O15042)
[28] = target: Gamma-tubulin complex component 3 (Homo sapiens) (UniProt Q96CW5)
[29] = target: L-lactate dehydrogenase A chain (Homo sapiens) (UniProt P00338)
[30] = target: TGF-beta receptor type-2 (Homo sapiens) (UniProt P37173)
[31] = target: ATP-dependent 6-phosphofructokinase, liver type (Homo sapiens) (UniProt P17858)
[32] = target: AarF domain-containing protein kinase 1 (Homo sapiens) (UniProt Q86TW2)
[33] = target: Serine/threonine-protein kinase Nek1 (Homo sapiens) (UniProt Q96PY6)
[34] = target: Fanconi anemia group D2 protein (Homo sapiens) (UniProt Q9BXW9)
Fascin (Homo sapiens) = Fascin (Homo sapiens) (UniProt Q16658)
[35] = target: Heat shock protein HSP 90-alpha (Homo sapiens) (UniProt P07900)
[36] = target: U5 small nuclear ribonucleoprotein 200 kDa helicase (Homo sapiens) (UniProt O75643)
[37] = target: MAP/microtubule affinity-regulating kinase 3 (Homo sapiens) (UniProt P27448)
[38] = target: Dual specificity mitogen-activated protein kinase kinase 3 (Homo sapiens) (UniProt P46734)
[39] = target: Large ribosomal subunit protein uL29 (Homo sapiens) (UniProt P42766)
[40] = target: Mitogen-activated protein kinase 8 (Homo sapiens) (UniProt P45983)
[41] = target: Small ribosomal subunit protein uS7m (Homo sapiens) (UniProt Q9Y2R9)
[42] = target: Exocyst complex component 4 (Homo sapiens) (UniProt Q96A65)
[43] = target: Serine/threonine-protein kinase N2 (Homo sapiens) (UniProt Q16513)
Wolframin (Homo sapiens) = Wolframin (Homo sapiens) (UniProt O76024)
Note: assay method not described here.

Chain of Large neutral amino acids transporter small subunit 1 (Homo sapiens) (Q01650 whole entry): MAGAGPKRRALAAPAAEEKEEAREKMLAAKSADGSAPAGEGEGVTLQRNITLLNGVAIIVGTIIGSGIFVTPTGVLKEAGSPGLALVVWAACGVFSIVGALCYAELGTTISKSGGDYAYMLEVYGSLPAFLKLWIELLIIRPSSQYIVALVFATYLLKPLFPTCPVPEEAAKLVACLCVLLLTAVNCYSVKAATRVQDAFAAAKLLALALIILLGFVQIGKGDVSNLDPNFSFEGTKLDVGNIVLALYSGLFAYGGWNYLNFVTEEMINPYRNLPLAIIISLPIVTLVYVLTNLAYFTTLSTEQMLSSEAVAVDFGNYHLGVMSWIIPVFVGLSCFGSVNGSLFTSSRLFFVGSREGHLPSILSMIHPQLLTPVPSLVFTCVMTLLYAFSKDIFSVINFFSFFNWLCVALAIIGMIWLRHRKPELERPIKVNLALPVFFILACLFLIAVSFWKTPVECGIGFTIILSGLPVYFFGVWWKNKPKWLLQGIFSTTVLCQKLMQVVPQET
Chain of ATP-dependent 6-phosphofructokinase, liver type (Homo sapiens) (P17858 whole entry, the tested form may be a part): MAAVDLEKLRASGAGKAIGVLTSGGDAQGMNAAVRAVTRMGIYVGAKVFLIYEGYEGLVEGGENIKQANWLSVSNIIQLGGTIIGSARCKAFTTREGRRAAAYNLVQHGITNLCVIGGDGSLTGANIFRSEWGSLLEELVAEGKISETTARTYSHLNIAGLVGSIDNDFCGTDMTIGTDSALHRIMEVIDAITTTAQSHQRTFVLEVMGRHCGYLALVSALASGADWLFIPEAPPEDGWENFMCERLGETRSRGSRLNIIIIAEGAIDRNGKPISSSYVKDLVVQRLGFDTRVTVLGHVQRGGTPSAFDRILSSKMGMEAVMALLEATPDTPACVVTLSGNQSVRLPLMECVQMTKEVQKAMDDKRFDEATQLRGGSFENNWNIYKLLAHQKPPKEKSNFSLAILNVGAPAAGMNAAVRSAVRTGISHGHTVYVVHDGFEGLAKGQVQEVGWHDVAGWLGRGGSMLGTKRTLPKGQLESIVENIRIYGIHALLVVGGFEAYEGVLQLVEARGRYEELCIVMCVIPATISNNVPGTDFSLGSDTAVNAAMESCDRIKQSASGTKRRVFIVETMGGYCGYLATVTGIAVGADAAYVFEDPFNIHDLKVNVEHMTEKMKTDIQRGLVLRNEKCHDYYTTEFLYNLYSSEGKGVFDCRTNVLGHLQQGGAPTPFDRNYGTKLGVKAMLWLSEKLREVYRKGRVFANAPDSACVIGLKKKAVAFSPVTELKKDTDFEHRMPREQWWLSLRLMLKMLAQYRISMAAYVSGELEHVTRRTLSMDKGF
Chain of Fanconi anemia group D2 protein (Homo sapiens) (Q9BXW9 whole entry): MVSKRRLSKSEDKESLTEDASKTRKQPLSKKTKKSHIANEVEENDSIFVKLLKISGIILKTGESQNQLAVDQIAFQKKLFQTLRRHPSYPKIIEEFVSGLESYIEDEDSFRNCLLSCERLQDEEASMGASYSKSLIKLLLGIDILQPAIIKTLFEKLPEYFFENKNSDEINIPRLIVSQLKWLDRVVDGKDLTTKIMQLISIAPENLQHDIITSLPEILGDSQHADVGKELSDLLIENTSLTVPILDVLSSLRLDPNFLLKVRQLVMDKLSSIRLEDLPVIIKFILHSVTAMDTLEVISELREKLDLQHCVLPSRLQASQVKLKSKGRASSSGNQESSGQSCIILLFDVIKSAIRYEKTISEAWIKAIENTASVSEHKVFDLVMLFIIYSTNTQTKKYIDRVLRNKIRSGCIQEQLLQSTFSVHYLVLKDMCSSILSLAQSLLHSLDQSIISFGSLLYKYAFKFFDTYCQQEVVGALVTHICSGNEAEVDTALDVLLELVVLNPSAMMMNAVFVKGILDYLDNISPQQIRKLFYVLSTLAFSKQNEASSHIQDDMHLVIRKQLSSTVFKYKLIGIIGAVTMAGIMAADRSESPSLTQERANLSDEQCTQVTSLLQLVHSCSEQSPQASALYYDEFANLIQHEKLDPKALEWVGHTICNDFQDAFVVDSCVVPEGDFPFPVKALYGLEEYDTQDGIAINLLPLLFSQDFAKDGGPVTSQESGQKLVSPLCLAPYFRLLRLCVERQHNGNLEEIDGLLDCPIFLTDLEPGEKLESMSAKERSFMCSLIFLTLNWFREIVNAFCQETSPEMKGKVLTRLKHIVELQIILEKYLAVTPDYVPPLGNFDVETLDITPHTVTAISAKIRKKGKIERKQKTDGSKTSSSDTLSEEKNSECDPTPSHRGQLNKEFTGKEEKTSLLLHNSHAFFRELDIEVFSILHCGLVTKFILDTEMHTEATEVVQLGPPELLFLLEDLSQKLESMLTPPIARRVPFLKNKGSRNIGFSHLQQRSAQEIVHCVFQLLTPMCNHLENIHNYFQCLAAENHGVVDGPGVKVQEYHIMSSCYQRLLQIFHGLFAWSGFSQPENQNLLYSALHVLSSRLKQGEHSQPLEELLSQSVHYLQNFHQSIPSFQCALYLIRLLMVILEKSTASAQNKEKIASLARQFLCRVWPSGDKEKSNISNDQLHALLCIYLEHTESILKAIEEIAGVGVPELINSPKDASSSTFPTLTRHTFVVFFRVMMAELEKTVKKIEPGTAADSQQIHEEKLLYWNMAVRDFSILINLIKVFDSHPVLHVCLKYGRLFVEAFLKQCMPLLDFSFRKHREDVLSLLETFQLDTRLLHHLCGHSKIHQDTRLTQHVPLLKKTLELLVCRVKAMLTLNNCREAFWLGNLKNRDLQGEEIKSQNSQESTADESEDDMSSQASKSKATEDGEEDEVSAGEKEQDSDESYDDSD
Chain of Gamma-tubulin complex component 3 (Homo sapiens) (Q96CW5 whole entry, one chain of several): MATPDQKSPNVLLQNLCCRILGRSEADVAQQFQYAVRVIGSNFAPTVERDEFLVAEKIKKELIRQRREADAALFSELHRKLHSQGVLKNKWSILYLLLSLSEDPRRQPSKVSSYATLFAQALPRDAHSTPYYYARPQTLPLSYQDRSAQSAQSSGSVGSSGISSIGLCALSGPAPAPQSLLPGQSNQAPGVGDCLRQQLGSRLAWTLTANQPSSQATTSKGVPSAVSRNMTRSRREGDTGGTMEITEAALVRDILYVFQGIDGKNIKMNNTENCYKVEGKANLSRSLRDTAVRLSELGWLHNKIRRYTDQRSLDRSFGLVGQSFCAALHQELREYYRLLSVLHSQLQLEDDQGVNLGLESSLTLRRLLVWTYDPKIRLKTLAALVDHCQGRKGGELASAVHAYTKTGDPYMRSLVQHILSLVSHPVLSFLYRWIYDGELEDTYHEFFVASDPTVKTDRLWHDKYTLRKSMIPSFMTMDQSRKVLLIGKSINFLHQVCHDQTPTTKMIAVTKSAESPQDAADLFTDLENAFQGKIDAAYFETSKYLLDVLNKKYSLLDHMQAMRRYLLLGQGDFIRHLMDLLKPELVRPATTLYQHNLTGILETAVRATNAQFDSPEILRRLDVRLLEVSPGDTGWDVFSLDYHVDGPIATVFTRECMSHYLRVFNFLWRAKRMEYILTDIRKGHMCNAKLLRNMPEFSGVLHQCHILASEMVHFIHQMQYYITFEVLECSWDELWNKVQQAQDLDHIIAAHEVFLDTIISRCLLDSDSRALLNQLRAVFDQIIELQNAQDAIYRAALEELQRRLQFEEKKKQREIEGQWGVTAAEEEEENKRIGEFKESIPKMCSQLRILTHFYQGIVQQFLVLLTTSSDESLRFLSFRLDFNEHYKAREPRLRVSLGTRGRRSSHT
Chain of Asparagine--tRNA ligase, cytoplasmic (Homo sapiens) (O43776 whole entry): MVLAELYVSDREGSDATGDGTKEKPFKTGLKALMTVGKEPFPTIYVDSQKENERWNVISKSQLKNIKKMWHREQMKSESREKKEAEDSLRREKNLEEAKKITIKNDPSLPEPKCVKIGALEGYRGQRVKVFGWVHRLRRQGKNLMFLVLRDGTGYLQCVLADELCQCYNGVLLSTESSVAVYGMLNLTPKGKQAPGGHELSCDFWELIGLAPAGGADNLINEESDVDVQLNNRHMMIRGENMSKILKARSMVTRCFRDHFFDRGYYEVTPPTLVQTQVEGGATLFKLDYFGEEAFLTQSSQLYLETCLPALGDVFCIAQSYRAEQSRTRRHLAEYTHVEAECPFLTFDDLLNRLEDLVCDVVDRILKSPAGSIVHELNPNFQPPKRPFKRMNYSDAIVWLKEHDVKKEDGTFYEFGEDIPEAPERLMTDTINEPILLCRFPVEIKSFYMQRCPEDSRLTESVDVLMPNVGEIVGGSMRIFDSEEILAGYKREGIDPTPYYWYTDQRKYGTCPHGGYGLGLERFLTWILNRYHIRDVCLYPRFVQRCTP
Chain of Lysosome-associated membrane glycoprotein 2 (Homo sapiens) (P13473 whole entry): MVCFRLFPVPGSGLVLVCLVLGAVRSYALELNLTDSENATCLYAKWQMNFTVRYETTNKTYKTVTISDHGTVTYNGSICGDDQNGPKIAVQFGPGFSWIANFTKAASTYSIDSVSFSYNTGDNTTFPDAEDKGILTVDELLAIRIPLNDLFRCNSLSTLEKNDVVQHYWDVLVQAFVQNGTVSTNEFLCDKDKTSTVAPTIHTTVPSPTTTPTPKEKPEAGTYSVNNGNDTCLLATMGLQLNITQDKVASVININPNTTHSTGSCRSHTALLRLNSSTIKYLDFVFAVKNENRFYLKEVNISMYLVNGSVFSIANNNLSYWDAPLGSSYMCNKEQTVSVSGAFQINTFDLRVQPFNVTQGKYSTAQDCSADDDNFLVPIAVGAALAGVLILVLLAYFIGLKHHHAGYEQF
Chain of Histone H1.10 (Homo sapiens) (Q92522 whole entry): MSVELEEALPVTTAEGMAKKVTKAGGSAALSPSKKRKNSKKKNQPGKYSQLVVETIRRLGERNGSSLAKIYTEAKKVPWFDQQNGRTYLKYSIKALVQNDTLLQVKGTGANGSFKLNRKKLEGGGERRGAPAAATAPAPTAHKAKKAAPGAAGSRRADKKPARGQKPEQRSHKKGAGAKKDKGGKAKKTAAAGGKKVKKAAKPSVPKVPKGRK
Chain of Stathmin (Homo sapiens) (P16949 whole entry): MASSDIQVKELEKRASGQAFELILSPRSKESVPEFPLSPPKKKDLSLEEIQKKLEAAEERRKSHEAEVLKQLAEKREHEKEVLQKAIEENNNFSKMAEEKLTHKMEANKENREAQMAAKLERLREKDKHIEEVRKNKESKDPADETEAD

Work on `Cc1ccc(C(=O)Nc2cccc(C(F)(F)F)c2)cc1Nc1nc(-c2cccnc2)nc2c1cnn2C` yielded an ED50 [1] of 0.136 µM, an ED50 [2] of 5.57 µM and an ED50 [3] of 4.22 µM. It also gave an ED50 [4] of 7.94 µM, an ED50 (Stathmin (Homo sapiens)) of 12.4 µM and an ED50 [5] of 0.0433 µM. It also gave an ED50 [6] of 0.484 µM, an ED50 [7] of 5.78 µM and an ED50 [8] of 0.0284 µM. The ED50 [9] was 5000 µM, the ED50 [10] was 0.0116 µM and the ED50 [11] was 7.24 µM. For the same compound, the ED50 [12] was 0.00899 µM, the ED50 [13] was 0.0163 µM and the ED50 [14] was 3.12 µM. For the same compound, the ED50 [15] was 6.34 µM, the ED50 [16] was 1.71 µM and the ED50 [17] was 2.24 µM. It also gave an ED50 [18] of 4.22 µM, an ED50 (Cyclin-H (Homo sapiens)) of 0.0553 µM and an ED50 [19] of 0.00529 µM. The ED50 (Homo sapiens [20]) was 33.9 µM, the ED50 [21] was 2.05 µM and the ED50 [22] was 0.118 µM. For the same compound, the ED50 (Homo sapiens [23]) was 4.25 µM, the ED50 [24] was 2.22 µM and the ED50 [25] was 0.0378 µM. The ED50 [26] was 0.0117 µM, the ED50 [27] was 0.0194 µM and the ED50 [28] was 10.2 µM. For the same compound, the ED50 [29] was 0.00901 µM, the ED50 [30] was 35.5 µM and the ED50 [31] was 111 µM. It also gave an ED50 [32] of 3.78 µM, an ED50 [33] of 1.87 µM and an ED50 [34] of 1.96 µM. It also gave an ED50 (Fascin (Homo sapiens)) of 0.0186 µM, an ED50 [35] of 0.173 µM and an ED50 [36] of 6.15 µM. It also gave an ED50 [37] of 19.1 µM, an ED50 [38] of 0.00369 µM and an ED50 [39] of 64.9 µM. It also gave an ED50 [40] of 3.44 µM, an ED50 [41] of 7.18 µM and an ED50 [42] of 11.4 µM. For the same compound, the ED50 [43] was 0.0969 µM and the ED50 (Wolframin (Homo sapiens)) was 2.67 µM.
`Cc1ccc(C(=O)Nc2cccc(C(F)(F)F)c2)cc1Nc1nc(-c2cccnc2)nc2nn(C)cc12` gave an ED50 [1] of 40.6 µM, an ED50 [2] of 0.362 µM and an ED50 [3] of 0.0218 µM. For the same compound, the ED50 [4] was 0.05 µM, the ED50 (Stathmin (Homo sapiens)) was 8.26 µM and the ED50 [5] was 0.0292 µM. It also gave an ED50 [6] of 0.136 µM, an ED50 [7] of 0.0816 µM and an ED50 [8] of 5.57 µM. The ED50 [9] was 0.0478 µM, the ED50 [10] was 1.46 µM and the ED50 [11] was 0.0167 µM. For the same compound, the ED50 [12] was 0.0559 µM, the ED50 [13] was 7.19 µM and the ED50 [14] was 18.3 µM. It also gave an ED50 [15] of 1.94 µM, an ED50 [16] of 1.13 µM and an ED50 [17] of 6.99 µM. The ED50 [18] was 2.74 µM, the ED50 (Cyclin-H (Homo sapiens)) was 13.2 µM and the ED50 [19] was 0.504 µM. For the same compound, the ED50 (Homo sapiens [20]) was 0.0569 µM, the ED50 [21] was 0.0325 µM and the ED50 [22] was 9.62 µM. For the same compound, the ED50 (Homo sapiens [23]) was 0.0418 µM, the ED50 [24] was 1.19 µM and the ED50 [25] was 1.72 µM. For the same compound, the ED50 [26] was 0.0836 µM, the ED50 [27] was 1.91 µM and the ED50 [28] was 0.00173 µM. The ED50 [29] was 21.8 µM, the ED50 [30] was 0.00886 µM and the ED50 [31] was 0.0338 µM. The ED50 [32] was 0.0933 µM, the ED50 [33] was 0.000912 µM and the ED50 [34] was 2.28 µM. It also gave an ED50 (Fascin (Homo sapiens)) of 0.348 µM, an ED50 [35] of 33.1 µM and an ED50 [36] of 0.539 µM. It also gave an ED50 [37] of 0.409 µM, an ED50 [38] of 2770 µM and an ED50 [39] of 0.00771 µM. For the same compound, the ED50 [40] was 0.0452 µM, the ED50 [41] was 154 µM and the ED50 [42] was 0.0488 µM. For the same compound, the ED50 [43] was 0.0506 µM and the ED50 (Wolframin (Homo sapiens)) was 2.66 µM.
